Patent US5498632A, “Esters of acyl carnitines with long-chain aliphatic alcohols and pharmaceutical compositions containing same having antibacterial activity” (Sigma-Tau Industrie Farmaceutiche Riunite S.p.A., priority 1992, dated 1996)
Read-outs that look alike come from different tables or passages of the source.

Tests used:
Format in all cases: cell-based
Gram- bacterial strains = assay: Mean MIC in broth and resistant strain number, Gram- strains; details: 18 h, read-out: Mean MIC values
Description: (§1) MICs were determined by a standard microdilution test, using serial two-fold dilutions of the substances in Mueller-Hinton broth.
(§2) The inoculum was prepared from an overnight culture in Mueller-Hinton broth matching the 0.5 Mc Farland (turbidity) standard (BRAY W. E., Clinical Laboratory Methods, 5th Ed. C. V. MOSBY, St. Louis, Mo. 1957), and was adjusted to a final concentration of 5.0×10^4 colony-forming units/ml.
(§3) Equal volumes (0.1 ml) of both bacterial suspensions and substance solutions were distributed in microtiter plates (Falcon, 96 wells, round bottom), and then placed in a humidified incubator (37° C.) for 18 hours.
(§4) Evaluation of the Minimal Inhibitory Concentration (MIC) in broth of 16 new substances for Gram- bacterial strains.
(§5) The following strains were used: Enterobacter (1), Escherichia (3), Klebsiella (3), Proteus (3); Pseudomonas (2); Salmonella (2), Serratia (1).

[1] = test system: Streptococcus faecalis (UM); assay: MIC in broth, Gram+ strains; details: Enterococcus faecalis; S. faecalis (UM), Mueller-Hinton broth, 37° C., 18 hours; read-out: Minimal Inhibitory Concentration (MIC)
Description: (§6) Evaluation of the Minimal Inhibitory Concentration (MIC) in broth of 15 new substances for Gram+ bacterial strains.
(§7) The following strains were used: Staphylococcus aureus (4); Streptococcus faecalis (8); Bacillus pumilus (1); Bacillus subtilis (1).
as §1, §2, §3
(§8) The results, in terms of MIC values, resistant strain number and mean MIC values versus susceptible strains, are illustrated in Tables 1-6.

[2] = test system: Staphylococcus aureus (303); assay: MIC in broth, Gram+ strains; details: S. aureus (303), Mueller-Hinton broth, 37° C., 18 hours, read-out: Minimal Inhibitory Concentration (MIC)
Description: as §6, §7, §1, §2, §3, §8

[3] = test system: Staphylococcus aureus (ATCC 14154); assay: MIC in broth, Gram+ strains; details: ATCC14154, S. aureus (ATCC 14154), Mueller-Hinton broth, 37° C., 18 hours, read-out: Minimal Inhibitory Concentration (MIC)
Description: as §6, §7, §1, §2, §3, §8

[4] = test system: Streptococcus faecalis (518); assay: MIC in broth, Gram+ strains; details: Enterococcus faecalis; S. faecalis (518), Mueller-Hinton broth, 37° C., 18 hours; read-out: Minimal Inhibitory Concentration (MIC)
Description: as §6, §7, §1, §2, §3, §8

[5] = test system: Streptococcus faecalis (509); assay: MIC in broth, Gram+ strains; details: Enterococcus faecalis; S. faecalis (509), Mueller-Hinton broth, 37° C., 18 hours; read-out: Minimal Inhibitory Concentration (MIC)
Description: as §6, §7, §1, §2, §3, §8

[6] = test system: Bacillus pumilus (CN 607); assay: MIC in broth, Gram+ strains; details: B. pumilus (CN 607), Mueller-Hinton broth, 37° C., 18 hours, read-out: Minimal Inhibitory Concentration (MIC)
Description: as §6, §7, §1, §2, §3, §8

[7] = test system: Streptococcus faecalis (505); assay: MIC in broth, Gram+ strains; details: Enterococcus faecalis; S. faecalis (505), Mueller-Hinton broth, 37° C., 18 hours; read-out: Minimal Inhibitory Concentration (MIC)
Description: as §6, §7, §1, §2, §3, §8

[8] = test system: Streptococcus faecalis (516); assay: MIC in broth, Gram+ strains; details: Enterococcus faecalis; S. faecalis (516), Mueller-Hinton broth, 37° C., 18 hours; read-out: Minimal Inhibitory Concentration (MIC)
Description: as §6, §7, §1, §2, §3, §8

[9] = test system: Streptococcus faecalis (501); assay: MIC in broth, Gram+ strains; details: Enterococcus faecalis; S. faecalis (501), Mueller-Hinton broth, 37° C., 18 hours; read-out: Minimal Inhibitory Concentration (MIC)
Description: as §6, §7, §1, §2, §3, §8

[10] = test system: Streptococcus faecalis (R 2); assay: MIC in broth, Gram+ strains; details: Enterococcus faecalis; S. faecalis (R 2), Mueller-Hinton broth, 37° C., 18 hours; read-out: Minimal Inhibitory Concentration (MIC)
Description: as §6, §7, §1, §2, §3, §8

[11] = test system: Streptococcus faecalis (519); assay: MIC in broth, Gram+ strains; details: Enterococcus faecalis; S. faecalis (519), Mueller-Hinton broth, 37° C., 18 hours; read-out: Minimal Inhibitory Concentration (MIC)
Description: as §6, §7, §1, §2, §3, §8

[12] = test system: Staphylococcus aureus (LC1); assay: MIC in broth, Gram+ strains; details: S. aureus (LC1), Mueller-Hinton broth, 37° C., 18 hours, read-out: Minimal Inhibitory Concentration (MIC)
Description: as §6, §7, §1, §2, §3, §8

[13] = test system: Staphylococcus aureus (306 MR); assay: MIC in broth, Gram+ strains; details: S. aureus (306 MR), Mueller-Hinton broth, 37° C., 18 hours, read-out: Minimal Inhibitory Concentration (MIC)
Description: as §6, §7, §1, §2, §3, §8

[14] = test system: Bacillus subtilis (ATCC 6051); assay: MIC in broth, Gram+ strains; details: ATCC6051, B. subtilis (ATCC 6051), Mueller-Hinton broth, 37° C., 18 hours, read-out: Minimal Inhibitory Concentration (MIC)
Description: as §6, §7, §1, §2, §3, §8

Gram+ bacterial strains = assay: Mean MIC in broth and resistant strain number, Gram+ strains; details: 18 h, versus susceptible strains
Description: as §6, §7, §1, §2, §3, §8

[15] = test system: Klebsiella aerogenes (SH 1082); assay: MIC in broth, Gram- strains; details: 18 h, read-out: Minimal Inhibitory Concentration (MIC)
Description: as §1, §2, §3, §4, §5

Salmonella typhi (J) = assay: MIC in broth, Gram- strains; details: Salmonella enterica, 18 h, read-out: Minimal Inhibitory Concentration (MIC)
Description: as §1, §2, §3, §4, §5

Escherichia coli (92 F) = assay: MIC in broth, Gram- strains; details: 18 h, E. coli (92 F), read-out: Minimal Inhibitory Concentration (MIC)
Description: as §1, §2, §3, §4, §5

Proteus mirabilis (32) = assay: MIC in broth, Gram- strains; details: 18 h, read-out: Minimal Inhibitory Concentration (MIC)
Description: as §1, §2, §3, §4, §5

[16] = test system: Salmonella typhimurium (D.S.); assay: MIC in broth, Gram- strains; details: Salmonella enterica, 18 h, read-out: Minimal Inhibitory Concentration (MIC)
Description: as §1, §2, §3, §4, §5

Proteus vulgaris (UM) = assay: MIC in broth, Gram- strains; details: 18 h, read-out: Minimal Inhibitory Concentration (MIC)
Description: as §1, §2, §3, §4, §5

[17] = test system: Pseudomonas aeruginosa (10 E); assay: MIC in broth, Gram- strains; details: 18 h, read-out: Minimal Inhibitory Concentration (MIC)
Description: as §1, §2, §3, §4, §5

Klebsiella oxytoca (552) = assay: MIC in broth, Gram- strains; details: 18 h, read-out: Minimal Inhibitory Concentration (MIC)
Description: as §1, §2, §3, §4, §5

[18] = test system: Pseudomonas aeruginosa (3 E); assay: MIC in broth, Gram- strains; details: 18 h, read-out: Minimal Inhibitory Concentration (MIC)
Description: as §1, §2, §3, §4, §5

Escherichia coli (R 57B) = assay: MIC in broth, Gram- strains; details: 18 h, E. coli (R 57B), read-out: Minimal Inhibitory Concentration (MIC)
Description: as §1, §2, §3, §4, §5

Proteus morganii (D.S.) = assay: MIC in broth, Gram- strains; details: Morganella morganii, 18 h, read-out: Minimal Inhibitory Concentration (MIC)
Description: as §1, §2, §3, §4, §5

[19] = test system: Klebsiella pneumoniae (7823); assay: MIC in broth, Gram- strains; details: 18 h, read-out: Minimal Inhibitory Concentration (MIC)
Description: as §1, §2, §3, §4, §5

SMILES | MIC [1] [µg/mL] | MIC [2] [µg/mL] | MIC [3] [µg/mL] | MIC [4] [µg/mL] | MIC [5] [µg/mL] | MIC [6] [µg/mL] | MIC [7] [µg/mL] | MIC [8] [µg/mL] | MIC [9] [µg/mL] | MIC [10] [µg/mL] | MIC [11] [µg/mL] | MIC [12] [µg/mL] | MIC [13] [µg/mL] | MIC [14] [µg/mL] | MIC (Gram+ bacterial strains) [µg/mL] | MIC [15] [µg/mL] | MIC (Salmonella typhi (J)) [µg/mL] | MIC (Escherichia coli (92 F)) [µg/mL] | MIC (Proteus mirabilis (32)) [µg/mL] | MIC [16] [µg/mL] | also measured
CCCCCCCCCCCOC(=O)CC(C[N+](C)(C)C)OC(=O)CCC(C)C (centres unmarked) [ST 1034] | 1.56 | 3.12 | 3.12 | 1.56 | 1.56 | 1.56 | 1.56 | 1.56 | 1.56 | 1.56 | 1.56 | 1.56 | 3.12 | 3.12 | 2 | 25 | 25 | 25 | > 100 | 100 | MIC (Gram- bacterial strains; Gram- strains, versus susceptible strains): 45 µg/mL; MIC (Proteus vulgaris (UM)): > 100 µg/mL; MIC [17]: 50 µg/mL; MIC (Klebsiella oxytoca (552)): 12.5 µg/mL; MIC [18]: 50 µg/mL; MIC (Escherichia coli (R 57B)): 50 µg/mL; MIC (Proteus morganii (D.S.)): 100 µg/mL; MIC [19]: 12.5 µg/mL
CCCCCCCCCCCOC(=O)CC(C[N+](C)(C)C)OC(=O)CCCCCC (centres unmarked) [ST 1036] | 1.56 | 3.12 | 3.12 | 3.12 | 1.56 | 1.56 | 1.56 | 3.12 | 1.56 | 3.12 | 3.12 | 1.56 | 3.12 | 3.12 | 2.45 | 100 | 25 | 25 | > 100 | > 100 | MIC (Gram- bacterial strains): 60.7 µg/mL; MIC (Proteus vulgaris (UM)): > 100 µg/mL; MIC [17]: > 100 µg/mL; MIC (Klebsiella oxytoca (552)): 50 µg/mL; MIC [18]: 100 µg/mL; MIC (Escherichia coli (R 57B)): > 100 µg/mL; MIC (Proteus morganii (D.S.)): > 100 µg/mL; MIC [19]: 12.5 µg/mL
